# Measured values published in ChEMBL document CHEMBL1154643, “Biaryl purine derivatives as potent antiproliferative agents: inhibitors of cyclin dependent kinases. Part I” (Bioorg Med Chem Lett, 2009).
# What was measured:
# [1] = Antiproliferative activity against human HeLaS3 cells by sulforhodamine B assay; type: functional; conditions: HeLa S3
# [2] = target: Cyclin-dependent kinase 2/cyclin E (Homo sapiens, UniProt P24941); test: Inhibition of recombinant CDK2/cyclin E; type: protein-complex assay
# [3] = target: Cyclin-dependent kinase 2/cyclin A (Homo sapiens, UniProt P24941); test: Inhibition of recombinant CDK2/cyclin A; type: protein-complex assay
SMILES,GI50 [1],IC50 [2],IC50 [3]
CC[C@H](CO)Nc1nc(NCc2ccc(-c3ccccc3)cc2)c2ncn(C(C)C)c2n1,400 nM,,
Cc1ccc(-c2ccc(CNc3nc(N[C@H]4CC[C@H](N)CC4)nc4c3ncn4C(C)C)cc2)cc1,,200 nM,400 nM
CC(C)n1cnc2c(NCc3ccc(-c4ccccc4)cc3)nc(N[C@H]3CC[C@H](NS(=O)(=O)C(F)(F)F)CC3)nc21,,> 5000 nM,> 5000 nM
Cc1ccc(-c2ccc(CNc3nc(N[C@H]4CC[C@H](N)CC4)nc4c3ncn4C(C)C)cc2)cc1C,,250 nM,500 nM
CC(C)n1cnc2c(NCc3ccc(-c4ccccc4)cc3)nc(N[C@@H]3CCCC[C@H]3N)nc21,,900 nM,2000 nM
CC(C)n1cnc2c(NCc3ccc(-c4ccccc4)cc3)nc(N3CCC(C(N)=O)CC3)nc21,,> 5000 nM,> 5000 nM
CC(C)n1cnc2c(NCc3ccc(-c4ccccc4)cc3)nc(N[C@H]3CC[C@H](NCC4CC4)CC3)nc21,,300 nM,900 nM
CC(C)n1cnc2c(NCc3ccc(-c4ccccc4)cc3)nc(NCCCN)nc21,,400 nM,3000 nM
CC(=O)N[C@H]1CC[C@H](Nc2nc(NCc3ccc(-c4ccccc4)cc3)c3ncn(C(C)C)c3n2)CC1,,300 nM,500 nM
CC(C)n1cnc2c(NCc3ccc(-c4ccccc4)cc3)nc(N[C@@H]3CCCC[C@@H]3N)nc21,,400 nM,900 nM
CCN(CC)[C@H]1CC[C@H](Nc2nc(NCc3ccc(-c4ccccc4)cc3)c3ncn(C(C)C)c3n2)CC1,,3000 nM,6000 nM
CC(C)n1cnc2c(NCc3ccc(-c4ccccc4)cc3)nc(N[C@H]3CC[C@H](NC(=O)CC4CC4)CC3)nc21,,300 nM,600 nM
CC(C)n1cnc2c(NCc3ccc(-c4ccccc4)cc3)nc(N[C@H]3CC[C@H](O)CC3)nc21,,400 nM,400 nM
CC(C)n1cnc2c(NCc3ccc(-c4ccccc4)cc3)nc(NCCN)nc21,,500 nM,600 nM
CCCCN[C@H]1CC[C@H](Nc2nc(NCc3ccc(-c4ccccc4)cc3)c3ncn(C(C)C)c3n2)CC1,,300 nM,1000 nM
CC(C)n1cnc2c(NCc3ccc(-c4ccccc4)cc3)nc(NC[C@H](C)NC(=O)OC(C)(C)C)nc21,,800 nM,1000 nM
CC(C)n1cnc2c(NCc3ccc(-c4ccccc4)cc3)nc(N3CCC(N)C3)nc21 (centres undefined),,3000 nM,3000 nM
CCC(=O)N[C@H]1CC[C@H](Nc2nc(NCc3ccc(-c4ccccc4)cc3)c3ncn(C(C)C)c3n2)CC1,,200 nM,500 nM
CC(C)n1cnc2c(NCc3ccc(-c4ccccc4)cc3)nc(NC3CCCC(N)C3)nc21 (centres undefined),,900 nM,1000 nM

SMILES,GI50 [1],IC50 [2],IC50 [3]
CC(C)n1cnc2c(NCc3ccc(-c4ccccc4)cc3)nc(NC3(CO)CCCC3)nc21,,600 nM,2000 nM
Cn1cnc2c(NCc3ccc(-c4ccccc4)cc3)nc(N[C@H]3CC[C@H](N)CC3)nc21,,800 nM,1000 nM
CC(C)n1cnc2c(NCc3ccc(-c4ccccc4)cc3)nc(NCC3CCNCC3)nc21,,2500 nM,4000 nM
CC(C)n1cnc2c(NCc3ccc(-c4ccccc4)cc3)nc(NC[C@H](C)N)nc21,,900 nM,2000 nM
Cc1cc(C)cc(-c2ccc(CNc3nc(N[C@H]4CC[C@H](N)CC4)nc4c3ncn4C(C)C)cc2)c1,,200 nM,400 nM
CC(C)n1cnc2c(NCc3ccc(-c4ccccc4)cc3)nc(NCCCCN)nc21,,3000 nM,3000 nM
CC(C)n1cnc2c(NCc3ccc(-c4ccccc4)cc3)nc(N[C@H]3CC[C@H](NS(C)(=O)=O)CC3)nc21,,200 nM,500 nM
CC(C)n1cnc2c(NCc3ccc(-c4cccc(Cl)c4)cc3)nc(N[C@H]3CC[C@H](N)CC3)nc21,,400 nM,400 nM
COc1cccc(-c2ccc(CNc3nc(N[C@H]4CC[C@H](N)CC4)nc4c3ncn4C(C)C)cc2)c1,,150 nM,350 nM
CC(Nc1nc(N[C@H]2CC[C@H](N)CC2)nc2c1ncn2C(C)C)c1ccc(-c2ccccc2)cc1 (some centres undefined),,4000 nM,5000 nM
CCCN[C@H]1CC[C@H](Nc2nc(NCc3ccc(-c4ccccc4)cc3)c3ncn(C(C)C)c3n2)CC1,,400 nM,500 nM
N[C@H]1CC[C@H](Nc2nc(NCc3ccc(-c4ccccc4)cc3)c3ncn(C4CCCC4)c3n2)CC1,,90 nM,100 nM
CC(C)n1cnc2c(NCCc3ccc(-c4ccccc4)cc3)nc(N[C@H]3CC[C@H](N)CC3)nc21,5000 nM,800 nM,1000 nM
Cc1cccc(-c2ccc(CNc3nc(N[C@H]4CC[C@H](N)CC4)nc4c3ncn4C(C)C)cc2)c1,,200 nM,300 nM
CC(C)n1cnc2c(NCc3ccc(-c4ccccc4Cl)cc3)nc(N[C@H]3CC[C@H](N)CC3)nc21,,600 nM,1000 nM
CC(C)n1cnc2c(NCc3ccc(-c4ccccc4)cc3)nc(N3CCC(CN)CC3)nc21,,1000 nM,4000 nM
CCN[C@H]1CC[C@H](Nc2nc(NCc3ccc(-c4ccccc4)cc3)c3ncn(C(C)C)c3n2)CC1,,1000 nM,3000 nM
Cn1cnc2c(NCc3ccccc3)nc(NCCO)nc21 [OLOMOUCINE],65000 nM,,
CC[C@H](CO)Nc1nc(NCc2ccccc2)c2ncn(C(C)C)c2n1 [SELICICLIB],20000 nM,,
